Experimental data as given in ChEMBL document CHEMBL1641506, “Design, synthesis and evaluation of novel tacrine-multialkoxybenzene hybrids as dual inhibitors for cholinesterases and amyloid beta aggregation” (Bioorg Med Chem, 2011).

Columns and labels:
[1] = Inhibition of amyloid beta (1-42) self-mediated aggregation at 20 uM by thioflavin T fluorescence method
Acetylcholinesterase = Acetylcholinesterase (Electrophorus electricus, UniProt O42275)
Description: Inhibition of electric eel AChE by Ellman's method

Butyrylcholinesterase = Butyrylcholinesterase (Equus caballus, UniProt Q9N1N9)
Sequence of Butyrylcholinesterase (Q9N1N9 whole entry): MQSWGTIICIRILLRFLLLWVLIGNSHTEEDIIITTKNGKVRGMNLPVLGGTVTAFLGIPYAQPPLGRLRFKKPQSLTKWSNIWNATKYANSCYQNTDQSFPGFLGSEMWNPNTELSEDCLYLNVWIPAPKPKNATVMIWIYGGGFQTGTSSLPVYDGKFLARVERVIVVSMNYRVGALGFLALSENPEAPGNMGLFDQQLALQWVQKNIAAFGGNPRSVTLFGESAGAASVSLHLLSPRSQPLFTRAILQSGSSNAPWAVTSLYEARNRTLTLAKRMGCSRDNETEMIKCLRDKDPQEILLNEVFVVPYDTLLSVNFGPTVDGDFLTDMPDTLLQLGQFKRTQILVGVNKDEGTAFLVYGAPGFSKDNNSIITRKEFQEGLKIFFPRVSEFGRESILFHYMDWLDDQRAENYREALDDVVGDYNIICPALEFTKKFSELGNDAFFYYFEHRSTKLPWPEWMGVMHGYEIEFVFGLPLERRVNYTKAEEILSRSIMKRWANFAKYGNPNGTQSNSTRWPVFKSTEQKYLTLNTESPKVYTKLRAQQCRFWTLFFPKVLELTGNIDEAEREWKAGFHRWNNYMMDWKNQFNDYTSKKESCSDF
Description: Inhibition of equine BChE by Ellman's method

Sequence of Acetylcholinesterase (O42275 whole entry): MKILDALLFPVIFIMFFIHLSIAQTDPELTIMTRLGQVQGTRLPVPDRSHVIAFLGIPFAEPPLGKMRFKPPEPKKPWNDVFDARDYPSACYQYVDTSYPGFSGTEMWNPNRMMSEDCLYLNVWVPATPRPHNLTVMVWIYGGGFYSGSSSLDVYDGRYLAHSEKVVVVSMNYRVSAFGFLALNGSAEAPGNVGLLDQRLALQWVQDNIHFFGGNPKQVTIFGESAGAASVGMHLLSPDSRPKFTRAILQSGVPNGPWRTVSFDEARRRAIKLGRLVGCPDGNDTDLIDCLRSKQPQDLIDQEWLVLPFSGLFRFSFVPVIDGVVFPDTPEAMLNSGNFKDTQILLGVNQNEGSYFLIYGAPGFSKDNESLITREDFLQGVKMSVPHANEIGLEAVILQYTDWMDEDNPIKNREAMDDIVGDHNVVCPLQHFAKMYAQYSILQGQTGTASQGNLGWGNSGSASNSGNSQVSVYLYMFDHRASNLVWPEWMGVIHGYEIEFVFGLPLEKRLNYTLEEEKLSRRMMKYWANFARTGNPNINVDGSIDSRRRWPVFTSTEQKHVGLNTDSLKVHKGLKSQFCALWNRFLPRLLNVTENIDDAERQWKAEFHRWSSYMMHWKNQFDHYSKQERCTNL

SMILES	inhibition [1] [%]	IC50 (Acetylcholinesterase) [nM]	IC50 (Butyrylcholinesterase) [nM]
COc1cc(CNCCCCCNc2c3c(nc4ccccc24)CCCC3)cc2c1OCO2	63.1	78.6	29.8
COc1cc(CNCCCCCCNc2c3c(nc4ccccc24)CCCC3)cc(OC)c1OC		22.4	2.59
COc1ccc(CNCCCCCCCNc2c3c(nc4ccccc24)CCCC3)cc1OC		24	5.51
COc1cc(CNCCCCCCCCCNc2c3c(nc4ccccc24)CCCC3)cc(OC)c1OC		20.2	4.73
COc1cc(CNCCCCCCNc2c3c(nc4ccccc24)CCCC3)cc2c1OCO2	67.1	20.5	5.19
COc1cc(CNCCCCCCCNc2c3c(nc4ccccc24)CCCC3)cc(OC)c1OC		17.3	3.55
COc1cc(CNCCCCCCCCCNc2c3c(nc4ccccc24)CCCC3)cc2c1OCO2	68.5	18.7	11.4
COc1cc(CNCCCCCCCCNc2c3c(nc4ccccc24)CCCC3)cc(OC)c1OC		9.77	3.38
COc1cc(CNCCCCCCCCNc2c3c(nc4ccccc24)CCCC3)cc2c1OCO2	65.2	7.98	7.94
COc1ccc(CNCCCCCCCCCNc2c3c(nc4ccccc24)CCCC3)cc1OC		25.1	5.67
COc1cc(CNCCCCNc2c3c(nc4ccccc24)CCCC3)cc2c1OCO2	63.8	113	46.3
COc1ccc(CNCCCCCCNc2c3c(nc4ccccc24)CCCC3)cc1OC		30.9	2.68
COc1ccc(CNCCCCCCCCNc2c3c(nc4ccccc24)CCCC3)cc1OC		11.3	5.57
COc1cc(CNCCCCCCCNc2c3c(nc4ccccc24)CCCC3)cc2c1OCO2	65	18.4	9.73
